According to patent US11395857B2, “Radiolabeled melanocortin 1 receptor-specific alpha-melanocyte-stimulating hormone analogues for imaging or therapy” (PROVINCIAL HEALTH SERVICES AUTHORITY, priority 2018, dated 2022):
Where two headings read alike, the source gives them in different places.

Experiments:
[1] = Biodistribution of 177Lu-labeled αMSH analogues in mice bearing B16F10 mouse melanoma; assay type: in vivo, C57BL/6J mice; conditions: mouse, iv, total radioactivity, C57BL/6J mice, B16F10 melanoma
Protocol: (§1) The B16-F10 mouse melanoma cells were cultured and inoculated in mice as described in Example 1.
(§2) For biodistribution studies, approximately 1-2 MBq of ^177Lu-labeled αMSH analogues via tail vein under anesthesia. At 1, 4, 24, and 120 h p.i., the mice were euthanized by CO2 inhalation. Organs/tissues were harvested and the radioactivity was measured as described in Example 1.

[2] = tested on: B16F10 mouse melanoma; experiment: as above; assay type: in vivo, C57BL/6J mice; conditions: C57BL/6J mice, B16F10 melanoma
Protocol: as §1, §2

## CCCC[C@H](NC(=O)CN1CCC(NC(=O)CN2CCN(CC(=O)O)CCN(CC(=O)O)CCN(CC(=O)O)CC2)CC1)C(=O)N[C@H]1CC(=O)NCCCC[C@@H](C(N)=O)N(C)C(=O)[C@H](Cc2c[nH]c3ccccc23)NC(=O)[C@H](CCCNC(=N)N)N(C)C(=O)[C@@H](Cc2ccccc2)NC(=O)[C@H](Cc2c[nH]cn2)NC1=O [^177Lu-labeled CCZ01106, metal not drawn]
[1]; male, seminal glands, 1 h p.i., read-out: Biodistribution, Seminal glands
  tissue uptake at 1 h: 0.22 ± 0.35 %ID/g
[1]; male, seminal glands, 4 h p.i., read-out: Biodistribution, Seminal glands
  tissue uptake at 4 h: 0.02 %ID/g
[1]; male, seminal glands, 24 h p.i., read-out: Biodistribution, Seminal glands
  tissue uptake at 24 h: 0.01 %ID/g
[1]; male, seminal glands, 120 h p.i., read-out: Biodistribution, Seminal glands
  tissue uptake at 120 h: 0.01 ± 0.01 %ID/g
[1]; male, testes, 1 h p.i., read-out: Biodistribution, Testes
  tissue uptake at 1 h: 0.17 ± 0.06 %ID/g
[1]; male, testes, 4 h p.i., read-out: Biodistribution, Testes
  tissue uptake at 4 h: 0.04 %ID/g
[1]; male, testes, 24 h p.i., read-out: Biodistribution, Testes
  tissue uptake at 24 h: 0.03 %ID/g
[1]; male, testes, 120 h p.i., read-out: Biodistribution, Testes
  tissue uptake at 120 h: 0.02 %ID/g
[1]; adrenal glands, 1 h p.i., read-out: Biodistribution, Adrenal glands
  tissue uptake at 1 h: 0.54 ± 0.28 %ID/g
[1]; adrenal glands, 4 h p.i., read-out: Biodistribution, Adrenal glands
  tissue uptake at 4 h: 0.13 ± 0.06 %ID/g
[1]; adrenal glands, 24 h p.i., read-out: Biodistribution, Adrenal glands
  tissue uptake at 24 h: 0.23 ± 0.18 %ID/g
[1]; adrenal glands, 120 h p.i., read-out: Biodistribution, Adrenal glands
  tissue uptake at 120 h: 0.02 ± 0.02 %ID/g
[1]; blood, 1 h p.i., read-out: Biodistribution, Blood
  tissue uptake at 1 h: 0.49 ± 0.22 %ID/g
[1]; blood, 4 h p.i., read-out: Biodistribution, Blood
  tissue uptake at 4 h: 0.02 %ID/g
[1]; blood, 24 h p.i., read-out: Biodistribution, Blood
  tissue uptake at 24 h: 0.01 %ID/g
[1]; bone, 1 h p.i., read-out: Biodistribution, Bone
  tissue uptake at 1 h: 0.18 ± 0.04 %ID/g
[1]; bone, 4 h p.i., read-out: Biodistribution, Bone
  tissue uptake at 4 h: 0.07 ± 0.02 %ID/g
[1]; bone, 24 h p.i., read-out: Biodistribution, Bone
  tissue uptake at 24 h: 0.06 ± 0.01 %ID/g
[1]; bone, 120 h p.i., read-out: Biodistribution, Bone
  tissue uptake at 120 h: 0.04 ± 0.01 %ID/g
[1]; brain, 1 h p.i., read-out: Biodistribution, Brain
  tissue uptake at 1 h: 0.02 %ID/g
[1]; brain, 4 h p.i., read-out: Biodistribution, Brain
  tissue uptake at 4 h: 0.01 %ID/g
[1]; brain, 24 h p.i., read-out: Biodistribution, Brain
  tissue uptake at 24 h: 0.01 %ID/g
[1]; fat, 1 h p.i., read-out: Biodistribution, Fat
  tissue uptake at 1 h: 0.05 ± 0.02 %ID/g
[1]; fat, 4 h p.i., read-out: Biodistribution, Fat
  tissue uptake at 4 h: 0.01 ± 0.01 %ID/g
[1]; fat, 24 h p.i., read-out: Biodistribution, Fat
  tissue uptake at 24 h: 0.01 %ID/g
[1]; heart, 1 h p.i., read-out: Biodistribution, Heart
  tissue uptake at 1 h: 0.19 ± 0.07 %ID/g
[1]; heart, 4 h p.i., read-out: Biodistribution, Heart
  tissue uptake at 4 h: 0.03 %ID/g
[1]; heart, 24 h p.i., read-out: Biodistribution, Heart
  tissue uptake at 24 h: 0.02 %ID/g
[1]; heart, 120 h p.i., read-out: Biodistribution, Heart
  tissue uptake at 120 h: 0.01 %ID/g
[1]; intestine, 1 h p.i., read-out: Biodistribution, Intestine
  tissue uptake at 1 h: 0.45 ± 0.2 %ID/g
[1]; intestine, 4 h p.i., read-out: Biodistribution, Intestine
  tissue uptake at 4 h: 0.11 ± 0.06 %ID/g
[1]; intestine, 24 h p.i., read-out: Biodistribution, Intestine
  tissue uptake at 24 h: 0.13 ± 0.04 %ID/g
[1]; intestine, 120 h p.i., read-out: Biodistribution, Intestine
  tissue uptake at 120 h: 0.06 ± 0.07 %ID/g
[1]; kidneys, 1 h p.i., read-out: Biodistribution, Kidneys
  tissue uptake at 1 h: 4.79 ± 0.92 %ID/g
[1]; kidneys, 4 h p.i., read-out: Biodistribution, Kidneys
  tissue uptake at 4 h: 3.31 ± 0.66 %ID/g
[1]; kidneys, 24 h p.i., read-out: Biodistribution, Kidneys
  tissue uptake at 24 h: 1.24 ± 0.46 %ID/g
[1]; kidneys, 120 h p.i., read-out: Biodistribution, Kidneys
  tissue uptake at 120 h: 0.36 ± 0.05 %ID/g
[1]; liver, 1 h p.i., read-out: Biodistribution, Liver
  tissue uptake at 1 h: 0.88 ± 0.16 %ID/g
[1]; liver, 4 h p.i., read-out: Biodistribution, Liver
  tissue uptake at 4 h: 0.81 ± 0.08 %ID/g
[1]; liver, 24 h p.i., read-out: Biodistribution, Liver
  tissue uptake at 24 h: 0.58 ± 0.14 %ID/g
[1]; liver, 120 h p.i., read-out: Biodistribution, Liver
  tissue uptake at 120 h: 0.34 ± 0.03 %ID/g
[1]; lungs, 1 h p.i., read-out: Biodistribution, Lungs
  tissue uptake at 1 h: 0.6 ± 0.19 %ID/g
[1]; lungs, 4 h p.i., read-out: Biodistribution, Lungs
  tissue uptake at 4 h: 0.14 ± 0.04 %ID/g
[1]; lungs, 24 h p.i., read-out: Biodistribution, Lungs
  tissue uptake at 24 h: 0.06 ± 0.02 %ID/g
[1]; lungs, 120 h p.i., read-out: Biodistribution, Lungs
  tissue uptake at 120 h: 0.01 ± 0.01 %ID/g
[1]; muscle, 1 h p.i., read-out: Biodistribution, Muscle
  tissue uptake at 1 h: 0.12 ± 0.05 %ID/g
[1]; muscle, 4 h p.i., read-out: Biodistribution, Muscle
  tissue uptake at 4 h: 0.02 ± 0.01 %ID/g
[1]; muscle, 24 h p.i., read-out: Biodistribution, Muscle
  tissue uptake at 24 h: 0.01 ± 0.01 %ID/g
[1]; pancreas, 1 h p.i., read-out: Biodistribution, Pancreas
  tissue uptake at 1 h: 0.15 ± 0.05 %ID/g
[1]; pancreas, 4 h p.i., read-out: Biodistribution, Pancreas
  tissue uptake at 4 h: 0.03 %ID/g
[1]; pancreas, 24 h p.i., read-out: Biodistribution, Pancreas
  tissue uptake at 24 h: 0.03 ± 0.01 %ID/g
[1]; pancreas, 120 h p.i., read-out: Biodistribution, Pancreas
  tissue uptake at 120 h: 0.01 %ID/g
[1]; spleen, 1 h p.i., read-out: Biodistribution, Spleen
  tissue uptake at 1 h: 0.38 ± 0.11 %ID/g
[1]; spleen, 4 h p.i., read-out: Biodistribution, Spleen
  tissue uptake at 4 h: 0.24 ± 0.03 %ID/g
[1]; spleen, 24 h p.i., read-out: Biodistribution, Spleen
  tissue uptake at 24 h: 0.2 ± 0.04 %ID/g
[1]; spleen, 120 h p.i., read-out: Biodistribution, Spleen
  tissue uptake at 120 h: 0.11 ± 0.01 %ID/g
[1]; stomach, 1 h p.i., read-out: Biodistribution, Stomach
  tissue uptake at 1 h: 0.36 ± 0.22 %ID/g
[1]; stomach, 4 h p.i., read-out: Biodistribution, Stomach
  tissue uptake at 4 h: 0.11 ± 0.02 %ID/g
[1]; stomach, 24 h p.i., read-out: Biodistribution, Stomach
  tissue uptake at 24 h: 0.42 ± 0.18 %ID/g
[1]; stomach, 120 h p.i., read-out: Biodistribution, Stomach
  tissue uptake at 120 h: 0.1 ± 0.08 %ID/g
[1]; thyroid, 1 h p.i., read-out: Biodistribution, Thyroid
  tissue uptake at 1 h: 0.43 ± 0.11 %ID/g
[1]; thyroid, 4 h p.i., read-out: Biodistribution, Thyroid
  tissue uptake at 4 h: 0.27 ± 0.06 %ID/g
[1]; thyroid, 24 h p.i., read-out: Biodistribution, Thyroid
  tissue uptake at 24 h: 0.17 ± 0.01 %ID/g
[1]; thyroid, 120 h p.i., read-out: Biodistribution, Thyroid
  tissue uptake at 120 h: 0.05 ± 0.02 %ID/g
[1]; tumour/blood, 1 h p.i., read-out: Tumour/blood
  tissue to tissue ratio at 1 h: 19.2 ± 8.25
[1]; tumour/blood, 4 h p.i., read-out: Tumour/blood
  tissue to tissue ratio at 4 h: 414 ± 59
[1]; tumour/blood, 24 h p.i., read-out: Tumour/blood
  tissue to tissue ratio at 24 h: 652 ± 101
[1]; tumour/blood, 120 h p.i., read-out: Tumour/blood
  tissue to tissue ratio at 120 h: 466 ± 382
[1]; tumour/kidney, 1 h p.i., read-out: Tumour/kidney
  tissue to tissue ratio at 1 h: 1.75 ± 0.47
[1]; tumour/kidney, 4 h p.i., read-out: Tumour/kidney
  tissue to tissue ratio at 4 h: 2.46 ± 0.87
[1]; tumour/kidney, 24 h p.i., read-out: Tumour/kidney
  tissue to tissue ratio at 24 h: 3.08 ± 1.05
[1]; tumour/kidney, 120 h p.i., read-out: Tumour/kidney
  tissue to tissue ratio at 120 h: 1.44 ± 1.14
[1]; tumour/muscle, 1 h p.i., read-out: Tumour/muscle
  tissue to tissue ratio at 1 h: 75 ± 29.8
[1]; tumour/muscle, 4 h p.i., read-out: Tumour/muscle
  tissue to tissue ratio at 4 h: 452 ± 158
[1]; tumour/muscle, 24 h p.i., read-out: Tumour/muscle
  tissue to tissue ratio at 24 h: 320 ± 91.8
[1]; tumour/muscle, 120 h p.i., read-out: Tumour/muscle
  tissue to tissue ratio at 120 h: 117 ± 92.2
[1]; urine, 1 h p.i.
  excreta dose per gram or mL at 1 h: 222 ± 81.1 %ID/g
[1]; urine, 4 h p.i.
  excreta dose per gram or mL at 4 h: 19.3 ± 4.21 %ID/g
[1]; urine, 24 h p.i.
  excreta dose per gram or mL at 24 h: 0.94 ± 0.48 %ID/g
[1]; urine, 120 h p.i.
  excreta dose per gram or mL at 120 h: 0.15 ± 0.07 %ID/g
[2]; 1 h p.i.
  Biodistribution, B16F10 tumour: 8.25 ± 1.94 % ID/g
[2]; 4 h p.i.
  Biodistribution, B16F10 tumour: 7.81 ± 2.16 % ID/g
[2]; 24 h p.i.
  Biodistribution, B16F10 tumour: 3.45 ± 0.30 % ID/g
[2]; 120 h p.i.
  Biodistribution, B16F10 tumour: 0.49 ± 0.36 % ID/g
  Biodistribution, Blood: 0.00 ± 0.00 % ID/g
  Biodistribution, Brain: 0.00 ± 0.00 % ID/g
  Biodistribution, Fat: 0.00 ± 0.00 % ID/g
  Biodistribution, Muscle: 0.00 ± 0.00 % ID/g
